# Test results reported in patent US8940909B2, “Indicator platform” (Biosynth AG, priority 2009, dated 2015).
# Key:
# Test in all cases: IO staining of colonies of beta-D-galactosidase positive/negative bacteria (Table IVb)
# Format in all cases: cell-based
# Shigella sonnei 133 = conditions: Shigella sonnei strain 133, b-gal +/−; 24 h on Nutrient Agar, 150 mg/l indicator, 100 mg/l IPTG
# [1] = tested on: Listeria monocytogenes (4b) 290; conditions: Listeria monocytogenes (4b) strain 290, b-gal −; 24 h on Nutrient Agar, 150 mg/l indicator, 100 mg/l IPTG; for C: Color of colonies: key: −: absent; +/−: weak; +: strong; ++: very strong; for F: Fluorescence of colonies: key: −: absent; +/−: weak; +: strong; ++: very strong
# Staphylococcus aureus 2 = conditions: Staphylococcus aureus strain 2, b-gal −, 24 h on Nutrient Agar, 150 mg/l indicator, 100 mg/l IPTG; for C: Color of colonies: footnote 2: S. aureus natural color
# [2] = tested on: Shigella dysenteriae Serovar 1 131; conditions: Shigella dysenteriae Serovar 1 strain 131, b-gal +/−; 24 h on Nutrient Agar, 150 mg/l indicator, 100 mg/l IPTG
# [3] = tested on: Pseudomonas aeruginosa 168; conditions: Pseudomonas aeruginosa strain 168, b-gal −, 24 h on Nutrient Agar, 150 mg/l indicator, 100 mg/l IPTG; for F: Fluorescence of colonies: footnote 1: blue autofluorescence; for C: Color of colonies: key: −: absent; +/−: weak; +: strong; ++: very strong; for G: Growth of colonies: key: −: absent; +/−: weak; +: strong; ++: very strong
# Escherichia coli 61 = conditions: Escherichia coli strain 61, b-gal +; 24 h on Nutrient Agar, 150 mg/l indicator, 100 mg/l IPTG
# Enterobacter cloacae 245 = conditions: Enterobacter cloacae strain 245, b-gal +; 24 h on Nutrient Agar, 150 mg/l indicator, 100 mg/l IPTG
# [4] = tested on: Escherichia coli (O157:H7) 60; conditions: Escherichia coli (O157:H7) strain 60, b-gal +; 24 h on Nutrient Agar, 150 mg/l indicator, 100 mg/l IPTG
# [5] = tested on: Yersinia enterocolitica 175; conditions: Yersinia enterocolitica strain 175, b-gal +/−; 24 h on Nutrient Agar, 150 mg/l indicator, 100 mg/l IPTG; for G: Growth of colonies: key: −: absent; +/−: weak; +: strong; ++: very strong
# Salmonella bongori 81 = conditions: Salmonella bongori strain 81, b-gal +; 24 h on Nutrient Agar, 150 mg/l indicator, 100 mg/l IPTG
# Citrobacter freundii 181 = conditions: Citrobacter freundii strain 181, b-gal +; 24 h on Nutrient Agar, 150 mg/l indicator, 100 mg/l IPTG
# [6] = tested on: Enterobacter aerogenes 242; conditions: Enterobacter aerogenes strain 242, b-gal +; 24 h on Nutrient Agar, 150 mg/l indicator, 100 mg/l IPTG; for C: Color of colonies: key: −: absent; +/−: weak; +: strong; ++: very strong; for G: Growth of colonies: key: −: absent; +/−: weak; +: strong; ++: very strong
# [7] = tested on: Staphylococcus saprophyticus 273; conditions: Staphylococcus saprophyticus strain 273, b-gal +; 24 h on Nutrient Agar, 150 mg/l indicator, 100 mg/l IPTG; for G: Growth of colonies: key: −: absent; +/−: weak; +: strong; ++: very strong
# [8] = tested on: Staphylococcus intermedius 31; conditions: Staphylococcus intermedius strain 31, b-gal +; 24 h on Nutrient Agar, 150 mg/l indicator, 100 mg/l IPTG
# Bacillus subtilis 65 = conditions: Bacillus subtilis strain 65, b-gal −; 24 h on Nutrient Agar, 150 mg/l indicator, 100 mg/l IPTG
# Shigella boydii 135 = conditions: Shigella boydii strain 135, b-gal −; 24 h on Nutrient Agar, 150 mg/l indicator, 100 mg/l IPTG
# Escherichia coli 270 = conditions: Escherichia coli strain 270, b-gal +; 24 h on Nutrient Agar, 150 mg/l indicator, 100 mg/l IPTG
# Serratia marcescens 40 = conditions: Serratia marcescens strain 40, b-gal +; 24 h on Nutrient Agar, 150 mg/l indicator, 100 mg/l IPTG
# Aeromonas hydrophila 292 = conditions: Aeromonas hydrophila strain 292, b-gal +; 24 h on Nutrient Agar, 150 mg/l indicator, 100 mg/l IPTG
# [9] = tested on: Klebsiella pneumoniae 164; conditions: Klebsiella pneumoniae strain 164, b-gal +; 24 h on Nutrient Agar, 150 mg/l indicator, 100 mg/l IPTG; for C: Color of colonies: key: −: absent; +/−: weak; +: strong; ++: very strong; for G: Growth of colonies: key: −: absent; +/−: weak; +: strong; ++: very strong
# Salmonella illa 73 = conditions: Salmonella illa strain 73, b-gal +; 24 h on Nutrient Agar, 150 mg/l indicator, 100 mg/l IPTG
compound,measurement,setting,value
"5-Bromo-4-chloro-1H-indol-3-yl-beta-D-galactopyranoside [Indicator I4a, reference compound]",C: Color of colonies,Shigella sonnei 133,+
same,F: Fluorescence of colonies,Shigella sonnei 133,−
same,G: Growth of colonies,Shigella sonnei 133,+
same,C: Color of colonies,[1],−
same,F: Fluorescence of colonies,[1],−
same,G: Growth of colonies,[1],+/−
same,F: Fluorescence of colonies,Staphylococcus aureus 2,−
same,G: Growth of colonies,Staphylococcus aureus 2,+
same,C: Color of colonies,Staphylococcus aureus 2,y^2
same,C: Color of colonies,[2],−
same,F: Fluorescence of colonies,[2],−
same,G: Growth of colonies,[2],+
same,C: Color of colonies,[3],−
same,G: Growth of colonies,[3],+
same,F: Fluorescence of colonies,[3],+^1
same,C: Color of colonies,Escherichia coli 61,++
same,F: Fluorescence of colonies,Escherichia coli 61,−
same,G: Growth of colonies,Escherichia coli 61,+
same,C: Color of colonies,Enterobacter cloacae 245,++
same,F: Fluorescence of colonies,Enterobacter cloacae 245,−
same,G: Growth of colonies,Enterobacter cloacae 245,+
same,C: Color of colonies,[4],++
same,F: Fluorescence of colonies,[4],−
same,G: Growth of colonies,[4],+
same,C: Color of colonies,[5],−
same,F: Fluorescence of colonies,[5],−
same,G: Growth of colonies,[5],+
same,C: Color of colonies,Salmonella bongori 81,+/−
same,F: Fluorescence of colonies,Salmonella bongori 81,−
same,G: Growth of colonies,Salmonella bongori 81,+
same,C: Color of colonies,Citrobacter freundii 181,+
same,F: Fluorescence of colonies,Citrobacter freundii 181,−
same,G: Growth of colonies,Citrobacter freundii 181,+
same,C: Color of colonies,[6],++
same,F: Fluorescence of colonies,[6],−
same,G: Growth of colonies,[6],+
same,C: Color of colonies,[7],+
same,F: Fluorescence of colonies,[7],−
same,G: Growth of colonies,[7],+
same,C: Color of colonies,[8],+
same,F: Fluorescence of colonies,[8],−
same,G: Growth of colonies,[8],+
same,C: Color of colonies,Bacillus subtilis 65,−
same,F: Fluorescence of colonies,Bacillus subtilis 65,−
same,G: Growth of colonies,Bacillus subtilis 65,+
same,C: Color of colonies,Shigella boydii 135,−
same,F: Fluorescence of colonies,Shigella boydii 135,−
same,G: Growth of colonies,Shigella boydii 135,+
same,C: Color of colonies,Escherichia coli 270,++
same,F: Fluorescence of colonies,Escherichia coli 270,−
same,G: Growth of colonies,Escherichia coli 270,+
same,C: Color of colonies,Serratia marcescens 40,+
same,F: Fluorescence of colonies,Serratia marcescens 40,−
same,G: Growth of colonies,Serratia marcescens 40,+
same,C: Color of colonies,Aeromonas hydrophila 292,+
same,F: Fluorescence of colonies,Aeromonas hydrophila 292,−
same,G: Growth of colonies,Aeromonas hydrophila 292,+
same,C: Color of colonies,[9],++
same,F: Fluorescence of colonies,[9],−
same,G: Growth of colonies,[9],+
same,C: Color of colonies,Salmonella illa 73,−
same,F: Fluorescence of colonies,Salmonella illa 73,−
same,G: Growth of colonies,Salmonella illa 73,+
"COc1ccc(C(=O)c2ccccc2-n2cc(O[C@@H]3O[C@H](CO)[C@H](O)[C@H](O)[C@H]3O)c3c(Cl)c(Br)ccc32)c(OC)c1 [Indicator I28a, 5-Bromo-4-chloro-1-[2-(2,4-dimethoxybenzoyl)phenyl]-1H-indol-3-yl-beta-D-galactopyranoside]",C: Color of colonies,Shigella sonnei 133,+
same,F: Fluorescence of colonies,Shigella sonnei 133,+/−
same,G: Growth of colonies,Shigella sonnei 133,+
same,C: Color of colonies,[1],−
same,F: Fluorescence of colonies,[1],−
same,G: Growth of colonies,[1],+/−
same,F: Fluorescence of colonies,Staphylococcus aureus 2,−
same,G: Growth of colonies,Staphylococcus aureus 2,+/−
same,C: Color of colonies,Staphylococcus aureus 2,−
same,C: Color of colonies,[2],−
same,F: Fluorescence of colonies,[2],−
same,G: Growth of colonies,[2],+
same,C: Color of colonies,[3],−
same,G: Growth of colonies,[3],+
same,F: Fluorescence of colonies,[3],+^1
same,C: Color of colonies,Escherichia coli 61,+
same,F: Fluorescence of colonies,Escherichia coli 61,+/−
same,G: Growth of colonies,Escherichia coli 61,+
same,C: Color of colonies,Enterobacter cloacae 245,+
same,F: Fluorescence of colonies,Enterobacter cloacae 245,+/−
same,G: Growth of colonies,Enterobacter cloacae 245,+
same,C: Color of colonies,[4],+
same,F: Fluorescence of colonies,[4],+/−
same,G: Growth of colonies,[4],+
same,C: Color of colonies,[5],−
same,F: Fluorescence of colonies,[5],−
same,G: Growth of colonies,[5],+
same,C: Color of colonies,Salmonella bongori 81,+/−
same,F: Fluorescence of colonies,Salmonella bongori 81,−
same,G: Growth of colonies,Salmonella bongori 81,+
same,C: Color of colonies,Citrobacter freundii 181,+
same,F: Fluorescence of colonies,Citrobacter freundii 181,+/−
same,G: Growth of colonies,Citrobacter freundii 181,+
same,C: Color of colonies,[6],+
same,F: Fluorescence of colonies,[6],+/−
same,G: Growth of colonies,[6],+
same,C: Color of colonies,[7],+/−
same,F: Fluorescence of colonies,[7],−
same,G: Growth of colonies,[7],+
same,C: Color of colonies,[8],+
same,F: Fluorescence of colonies,[8],+/−
same,G: Growth of colonies,[8],+
same,C: Color of colonies,Bacillus subtilis 65,−
same,F: Fluorescence of colonies,Bacillus subtilis 65,−
same,G: Growth of colonies,Bacillus subtilis 65,+/−
same,C: Color of colonies,Shigella boydii 135,−
same,F: Fluorescence of colonies,Shigella boydii 135,−
same,G: Growth of colonies,Shigella boydii 135,+
same,C: Color of colonies,Escherichia coli 270,++
same,F: Fluorescence of colonies,Escherichia coli 270,+/−
same,G: Growth of colonies,Escherichia coli 270,+
same,C: Color of colonies,Serratia marcescens 40,+/−
same,F: Fluorescence of colonies,Serratia marcescens 40,−
same,G: Growth of colonies,Serratia marcescens 40,+
same,C: Color of colonies,Aeromonas hydrophila 292,+/−
same,F: Fluorescence of colonies,Aeromonas hydrophila 292,−
same,G: Growth of colonies,Aeromonas hydrophila 292,+
same,C: Color of colonies,[9],+
same,F: Fluorescence of colonies,[9],+/−
same,G: Growth of colonies,[9],+
same,C: Color of colonies,Salmonella illa 73,−
same,F: Fluorescence of colonies,Salmonella illa 73,−
same,G: Growth of colonies,Salmonella illa 73,+
